The record followed here is patent publication US4866038A, “Method of stimulating integumental melanocytes by topical application of analogs of alpha-msh” (University Patents, Inc., priority 1988, dated 1989).

The test system of experiment [1] is lizard (Anolis caroliniensis). In kind it is cell-based. How it is done: (§1) Biological effect on in vivo and in vitro melanosome dispersion was examined using the frog (Rana pipiens) and the lizard (Anolis caroliniensis). [See Hadley et al., Science 213:1025-1027(1981)]; similar examinations were conducted with respect to the duration of its ability to stimulate melanosome dispersion in vitro using the skin bioassay as described in Shimume, Endrochrinology, 54:553-560(1954). The in vitro results are depicted in Table I.

A further experiment deals with frog (Rana pipiens). Format: cell-based. How it is done: as §1

Read-outs that look alike come from different tables or passages of the source. Non-standard residues stand in square brackets, D forms with d. Residues, ends and D or L forms follow the SMILES beside them. *: point of attachment. Phe(4-NO2) = N[C@@H](Cc1ccc([N+](=O)[O-])cc1)C(=O)O; dPhg = N[C@@H](C(=O)O)c1ccccc1; Phg = N[C@H](C(=O)O)c1ccccc1; Nle = CCCC[C@H](N)C(=O)O; For = O=C*

Turning to `CCCC[C@H](NC(C)=O)C(=O)N[C@@H](CCC(=O)O)C(=O)N[C@@H](Cc1c[nH]cn1)C(=O)N[C@H](Cc1ccc(O)cc1)C(=O)N[C@@H](CCCNC(=N)N)C(=O)N[C@@H](Cc1c[nH]c2ccccc12)C(=O)NCC(=O)N[C@@H](CCCCN)C(N)=O` [Ac--[Nle^4 --D-Tyr^7]--alpha-MSH4-11 --NH2] (Ac-[Nle]EH[dY]RWGK-NH2), the “Relative Potency Lizard” value in experiment [1] amounted to 1.0. For the compound `CCCC[C@H](NC(C)=O)C(=O)N[C@@H](CCC(=O)O)C(=O)N[C@@H](Cc1c[nH]cn1)C(=O)NCC(=O)N[C@@H](CCCNC(=N)N)C(=O)N[C@@H](Cc1c[nH]c2ccccc12)C(=O)NCC(=O)N[C@@H](CCCCN)C(N)=O` [Ac--[Nle^4 --Gly^7]--alpha-MSH4-11 --NH2] (Ac-[Nle]EHGRWGK-NH2), in the experiment on frog (Rana pipiens), the “Relative Potency Frog” value came to 0.005. Further, the “Relative Potency Lizard” value in experiment [1] was 0.0005. On to `CCCC[C@H](NC(C)=O)C(=O)N[C@@H](CCC(=O)O)C(=O)N[C@@H](Cc1c[nH]cn1)C(=O)N[C@H](Cc1ccccc1)C(=O)N[C@H](CCCNC(=N)N)C(=O)N[C@@H](Cc1c[nH]c2ccccc12)C(=O)NCC(=O)N[C@@H](CCCCN)C(N)=O` [Ac--[Nle^4 --D-Phe^7 --D-Arg^8]--alpha-MSH4-11 --NH2] (Ac-[Nle]EH[dF][dR]WGK-NH2), for which the “Relative Potency Frog” value in the experiment on frog (Rana pipiens) is listed as 0.00010. For the same compound, the “Relative Potency Lizard” value in experiment [1] is 0.0022. In the case of `CCCC[C@H](NC(C)=O)C(=O)N[C@@H](CCC(=O)O)C(=O)N[C@@H](Cc1c[nH]cn1)C(=O)N[C@H](Cc1ccccc1)C(=O)N[C@@H](CCCNC(=N)N)C(=O)N[C@H](Cc1c[nH]c2ccccc12)C(N)=O` [Ac--[Nle^4 --D-Phe^7 --D-Trp^9]--alpha-MSH4-9 --NH2] (Ac-[Nle]EH[dF]R[dW]-NH2), in the experiment with frog (Rana pipiens), the “Relative Potency Frog” value came to 0.03. Also, the “Relative Potency Lizard” value in experiment [1] is 3.8. Turning to `CCCC[C@H](NC(C)=O)C(=O)N[C@@H](CCC(=O)O)C(=O)N[C@@H](Cc1c[nH]cn1)C(=O)N[C@@H](C(=O)N[C@@H](CCCNC(=N)N)C(=O)N[C@@H](Cc1c[nH]c2ccccc12)C(=O)NCC(=O)N[C@@H](CCCCN)C(N)=O)c1ccccc1` [Ac--[Nle^4 --D-Plg^7]--alpha-MSH4-11 --NH2] (Ac-[Nle]EH[dPhg]RWGK-NH2), in the experiment on frog (Rana pipiens), the “Relative Potency Frog” value stood at 0.0003. Besides, the “Relative Potency Lizard” value in experiment [1] was 0.0005. Taken in the same sequence, the figures for `CCCC[C@H](NC(C)=O)C(=O)N[C@@H](CCC(=O)O)C(=O)N[C@@H](Cc1c[nH]cn1)C(=O)N[C@@H](C)C(=O)N[C@@H](CCCNC(=N)N)C(=O)N[C@@H](Cc1c[nH]c2ccccc12)C(=O)NCC(=O)N[C@@H](CCCCN)C(N)=O` [Ac--[Nle^4 --Ala^7]--alpha-MSH4-11 --NH2] (Ac-[Nle]EHARWGK-NH2) were 0.02 and 0.009. For `CCCC[C@H](NC(C)=O)C(=O)N[C@@H](CCC(=O)O)C(=O)N[C@H](Cc1c[nH]cn1)C(=O)N[C@H](Cc1ccccc1)C(=O)N[C@@H](CCCNC(=N)N)C(=O)N[C@@H](Cc1c[nH]c2ccccc12)C(=O)NCC(=O)N[C@@H](CCCCN)C(N)=O` [Ac--[Nle^4 --D-His^6 --D-Phe^7]--alpha-MSH4-11 --NH2] (Ac-[Nle]E[dH][dF]RWGK-NH2), the “Relative Potency Frog” value with frog (Rana pipiens) stood at 0.0006. The “Relative Potency Lizard” value in experiment [1] came out at 0.053. Turning to `CCCC[C@H](NC(C)=O)C(=O)N[C@@H](CCC(=O)O)C(=O)N[C@@H](Cc1c[nH]cn1)C(=O)N[C@@H](Cc1ccccc1)C(=O)N[C@H](CCCNC(=N)N)C(=O)N[C@@H](Cc1c[nH]c2ccccc12)C(=O)NCC(=O)N[C@@H](CCCCN)C(N)=O` [Ac--[Nle^4 --D-Arg^8]--alpha-MSH4-11 --NH2] (Ac-[Nle]EHF[dR]WGK-NH2), the “Relative Potency Frog” value in the experiment on frog (Rana pipiens) amounted to 0.000016. In addition, in experiment [1], the “Relative Potency Lizard” value is given as 0.0022. Take `CSCC[C@H](NC(C)=O)C(=O)N[C@@H](CCC(=O)O)C(=O)N[C@@H](Cc1c[nH]cn1)C(=O)N[C@H](C)C(=O)N[C@@H](CCCNC(=N)N)C(=O)N[C@@H](Cc1c[nH]c2ccccc12)C(=O)NCC(=O)N[C@@H](CCCCN)C(N)=O` [Ac--[D-Ala^7]--alpha-MSH4-11 --NH2] (Ac-MEH[dA]RWGK-NH2): in the experiment with frog (Rana pipiens), the “Relative Potency Frog” value stood at 0.001. As for `CC(=O)N[C@@H](CCC(=O)O)C(=O)N[C@@H](Cc1c[nH]cn1)C(=O)N[C@H](Cc1ccccc1)C(=O)N[C@@H](CCCNC(=N)N)C(=O)N[C@@H](Cc1c[nH]c2ccccc12)C(=O)NCC(=O)N[C@@H](CCCCN)C(N)=O` [Ac--[D-Phe^7]--alpha-MSH5-11 --NH2] (Ac-EH[dF]RWGK-NH2), the “Relative Potency Frog” value in the experiment with frog (Rana pipiens) is listed as 0.01.

Take `CSCC[C@H](NC(C)=O)C(=O)N[C@@H](CCC(=O)O)C(=O)N[C@@H](Cc1c[nH]cn1)C(=O)N[C@@H](Cc1ccc([N+](=O)[O-])cc1)C(=O)N[C@@H](CCCNC(=N)N)C(=O)N[C@@H](Cc1c[nH]c2ccccc12)C(=O)NCC(=O)N[C@@H](CCCCN)C(N)=O` [Ac--[Phe(pNO2)^7]--alpha-MSH4-11 --NH2] (Ac-MEH[Phe(4-NO2)]RWGK-NH2): the “Relative Potency Frog” value with frog (Rana pipiens) came to 0.0003.

As to `CCCC[C@H](NC(C)=O)C(=O)N[C@@H](CCC(=O)O)C(=O)N[C@@H](Cc1c[nH]cn1)C(=O)N[C@H](Cc1ccccc1)C(=O)N[C@@H](CCCNC(=N)N)C(=O)N[C@@H](Cc1c[nH]c2ccccc12)C(=O)NCC(=O)N[C@@H](CCCCN)C(N)=O` [Ac--[Nle^4 --D-Phe^7]--alpha-MSH4-11 --NH2] (Ac-[Nle]EH[dF]RWGK-NH2), in the experiment on frog (Rana pipiens), the “Relative Potency Frog” value is 0.012. For the same compound, in experiment [1], the “Relative Potency Lizard” value is listed as 8.0. Consider `CCCC[C@H](NC(C)=O)C(=O)N[C@@H](CCC(=O)O)C(=O)N[C@@H](Cc1c[nH]cn1)C(=O)N[C@H](C(=O)N[C@@H](CCCNC(=N)N)C(=O)N[C@@H](Cc1c[nH]c2ccccc12)C(=O)NCC(=O)N[C@@H](CCCCN)C(N)=O)c1ccccc1` [Ac--[Nle^4 --Plg^7]--alpha-MSH4-11 --NH2] (Ac-[Nle]EH[Phg]RWGK-NH2), for which the “Relative Potency Frog” value with frog (Rana pipiens) stood at 0.14. For the same compound, the “Relative Potency Lizard” value in experiment [1] was 0.14. Take `CCCC[C@H](NC(C)=O)C(=O)N[C@@H](CCC(=O)O)C(=O)N[C@@H](Cc1c[nH]cn1)C(=O)N[C@@H](Cc1ccc([N+](=O)[O-])cc1)C(=O)N[C@@H](CCCNC(=N)N)C(=O)N[C@@H](Cc1c[nH]c2ccccc12)C(=O)NCC(=O)N[C@@H](CCCCN)C(N)=O` [Ac--[Nle^ 4 --pNO2 Phe^7]--alpha-MSH4-11 --NH2] (Ac-[Nle]EH[Phe(4-NO2)]RWGK-NH2): the “Relative Potency Frog” value with frog (Rana pipiens) was found to be 0.0009. Also, the “Relative Potency Lizard” value in experiment [1] was 0.20. As to `CCCC[C@H](NC(C)=O)C(=O)N[C@@H](CCC(=O)O)C(=O)N[C@H](Cc1c[nH]cn1)C(=O)N[C@@H](Cc1ccccc1)C(=O)N[C@@H](CCCNC(=N)N)C(=O)N[C@@H](Cc1c[nH]c2ccccc12)C(=O)NCC(=O)N[C@@H](CCCCN)C(N)=O` [Ac--[Nle^4 --D-His^6]--alpha-MSH4-11 --NH2] (Ac-[Nle]E[dH]FRWGK-NH2), the “Relative Potency Frog” value in the experiment on frog (Rana pipiens) is 0.0014. In addition, the “Relative Potency Lizard” value in experiment [1] worked out at 0.002. For the compound `CCCC[C@H](NC(C)=O)C(=O)N[C@@H](CCC(=O)O)C(=O)N[C@@H](Cc1c[nH]cn1)C(=O)N[C@H](Cc1ccccc1)C(=O)N[C@@H](CCCNC(=N)N)C(=O)N[C@@H](Cc1ccccc1)C(=O)NCC(=O)N[C@@H](CCCCN)C(N)=O` [Ac--[Nle^4 --D-Phe^7 --Phe^9]--alpha-MSH4-11 --NH2] (Ac-[Nle]EH[dF]RFGK-NH2), the “Relative Potency Frog” value with frog (Rana pipiens) is on record as 0.017. Take `CC(=O)N[C@@H](Cc1ccc(O)cc1)C(=O)N[C@@H](CCC(=O)O)C(=O)N[C@@H](Cc1c[nH]cn1)C(=O)N[C@H](Cc1ccccc1)C(=O)N[C@@H](CCCNC(=N)N)C(=O)N[C@@H](Cc1c[nH]c2ccccc12)C(=O)NCC(=O)N[C@@H](CCCCN)C(N)=O` [Ac--[Tyr^4 --D-Phe^7]--alpha-MSH4-11 --NH2] (Ac-YEH[dF]RWGK-NH2): the “Relative Potency Frog” value in the experiment with frog (Rana pipiens) came to 0.01. Consider `CCCC[C@H](NC(C)=O)C(=O)N[C@@H](CCC(=O)O)C(=O)N[C@@H](Cc1c[nH]cn1)C(=O)N[C@@H](Cc1ccccc1)C(=O)N[C@@H](CCCNC(=N)N)C(=O)N[C@@H](Cc1c[nH]c2ccccc12)C(N)=O` [Ac--[Nle^4 --alpha-MSH4-9 --NH2] (Ac-[Nle]EHFRW-NH2), for which the “Relative Potency Frog” value in the experiment with frog (Rana pipiens) stood at 0.0007. For the same compound, in experiment [1], the “Relative Potency Lizard” value was determined as 0.18.

On to `CCCC[C@H](NC(C)=O)C(=O)N[C@@H](CCC(=O)O)C(=O)N[C@@H](Cc1c[nH]cn1)C(=O)N[C@H](Cc1ccccc1)C(=O)N[C@@H](CCCNC(=N)N)C(=O)N[C@@H](Cc1cn(C=O)c2ccccc12)C(=O)NCC(=O)N[C@@H](CCCCN)C(N)=O` [Ac--[Nle^4 --D-Phe^7 --TrpFor^9]--alpha-MSH4-11 --NH2] (Ac-[Nle]EH[dF]RW(For)GK-NH2), for which the “Relative Potency Frog” value in the experiment on frog (Rana pipiens) worked out at 0.033.

Take `CCCC[C@H](NC(C)=O)C(=O)N[C@@H](CCC(=O)O)C(=O)N[C@@H](Cc1c[nH]cn1)C(=O)N[C@H](Cc1ccccc1)C(=O)N[C@@H](CCCNC(=N)N)C(=O)N[C@@H](Cc1c[nH]c2ccccc12)C(N)=O` [Ac--[Nle^4 --D-Phe^7 --alpha-MSH4-9 --NH2] (Ac-[Nle]EH[dF]RW-NH2): the “Relative Potency Lizard” value in experiment [1] is 7.14. As to Ac--[Phe--Gly^7 ]--alpha-MSH4-11 --NH2, the “Relative Potency Frog” value in the experiment on frog (Rana pipiens) (in vitro skin bioassay, alpha-MSH = 1.0) is on record as 0.10.

On to `CCCC[C@H](NC(C)=O)C(=O)N[C@@H](CCC(=O)O)C(=O)N[C@@H](Cc1c[nH]cn1)C(=O)N[C@@H](Cc1ccc(O)cc1)C(=O)N[C@@H](CCCNC(=N)N)C(=O)N[C@@H](Cc1c[nH]c2ccccc12)C(=O)NCC(=O)N[C@@H](CCCCN)C(N)=O` [Ac--[Nle^4 --Tyr^7]--alpha-MSH4-11 --NH2] (Ac-[Nle]EHYRWGK-NH2), for which the “Relative Potency Lizard” value in experiment [1] was 0.0090. As for `CC(=O)N[C@@H](Cc1ccc(O)cc1)C(=O)N[C@@H](CCC(=O)O)C(=O)N[C@@H](Cc1c[nH]cn1)C(=O)N[C@H](Cc1ccccc1)C(=O)N[C@@H](CCCNC(=N)N)C(=O)N[C@@H](Cc1c[nH]c2ccccc12)C(=O)NCC(N)=O` [Ac--[Tyr^4 --D-Phe^7 --alpha-MSH4-10 --NH2] (Ac-YEH[dF]RWG-NH2), in the experiment on frog (Rana pipiens), the “Relative Potency Frog” value was determined as 0.005.
